Laboratory results reported in patent EP0702683B1, “06-SUBSTITUTED GUANINE DERIVATIVES, A PROCESS FOR THEIR PREPARATION AND THEIR USE IN TREATING TUMOUR CELLS” (Cancer Research Technology Limited, priority 1993, dated 1994).
Like-named read-outs stand apart in the source and are kept apart here.

How the values were obtained:
[1] = biological target: T1, ATase (Cricetulus griseus, UniProt P26186); assay: Inactivation of ATase activity in Hamster +120 cells; format: cell-based, Chinese hamster; settings: 2 hours at 37°C, read-out: Inactivation of ATase in Mammalian Cells I50(µM) Hamster + 120
T1 construct: endogenous in cells; host or cells: Hamster +120 (V79 RJKO subline)
T1 sequence (P26186 1-209): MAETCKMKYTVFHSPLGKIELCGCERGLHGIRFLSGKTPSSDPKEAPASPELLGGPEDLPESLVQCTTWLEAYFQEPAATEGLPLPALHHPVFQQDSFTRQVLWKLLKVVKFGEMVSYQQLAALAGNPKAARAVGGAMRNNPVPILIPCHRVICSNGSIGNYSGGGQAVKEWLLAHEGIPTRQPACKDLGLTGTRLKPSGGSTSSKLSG
Method: Mammalian cells were cultured under standard conditions. For example, Raji (a human lymphoblastoid cell line from a Burkitt's lymphoma) cells were grown in suspension culture in RPMI medium supplemented with 10% horse serum. […]
Cells were diluted to 10^6/ml in culture medium containing either the appropriate concentration of inactivator or an equivalent volume of vehicle (DMSO). […] ATase activity was determined as described above, in duplicate sonicated cell extracts and expressed as the percentage activity remaining based on that present in the untreated controls (for example 350-450 fm/mg in Raji cells).

[2] = system: Raji cells; assay: Sensitization of Raji cells to BCNU (XTT assay); format: cell-based, human; settings: for Raji sensitization (D90.^C/D90.^I) 1.0µM / Raji sensitization (D90.^C/D90.^I) O.1µM: BCNU, 2 hour pretreatment; for Raji sensitization (D90.^C/D90.^I) 1.0µM: inactivator 1.0µM; for Raji sensitization (D90.^C/D90.^I) O.1µM: inactivator O.1µM; for sensitizing Raji cells to the growth inhibitory effects of BCNU, compared with BeG: Figure 2, in words
Method: (§1) Following a 2 hour incubation at 37°C, medium containing either increasing doses of BCNU, temozolomide or equivalent vehicle was added and the cells allowed to grow for 6 days. At this time XTT solution was added and the cells incubated for a further 4 hours at 37°C. The resulting red/orange formazan reaction product was quantified by measuring absorption at 450nm on a microtitre platereader.

[3] = system: A375M cells; assay: Sensitization of A375M cells to BCNU (MTT assay); format: cell-based, human; settings: for A375M sensitization (D50.^C/D50.^I) 0.5uM: inactivator 0.5uM 2 hours before; for A375M sensitization (D50.^C/D50.^I) 5.0uM: inactivator 5.0uM 2 hours before
Method: Sensitization of A375M cells to the cytotoxic effects of BCNU was analysed by MTT assay ^24 differing from the XTT assay described above as follows. […] After 6 days MTT solution (4mg/ml) was added and cells incubated for 3 hours at 37°C. Medium was aspirated and the resulting purple formazan crystals were solubilised in DMSO (120μl) and cell viability was quantified by measuring absorption at 540nm using a microtitre plate reader.

[4] = Growth inhibition of V79 cells by inactivator alone; format: cell-based, Chinese hamster; settings: chinese hamster, v79 cells, Figure 5
Method: (§2) In order to assess the effects on cell growth alone, Xeroderma pigmentosum cells and Chinese Hamster V79 cells were exposed to increasing concentrations (up to 600µM) of selected inactivators for 2h at 37°. In some cases, the inactivators were allowed to undergo hydrolysis at 37°C for 20 hours and then added to […] in order to assess the extent to which the decomposition products of the agents might inhibit cell growth. After 6 days the extent of cell growth was determined as described above.

[5] = system: Chinese hamster V79 cells; assay: as above; format: cell-based
Method: as §2

[6] = Growth inhibition of Xeroderma pigmentosum cells by inactivator alone; format: cell-based, human; settings: human, xeroderma pigmentosum cells; Figs 5 & 6; read-out: toxic concentrations in XP cells relative to those at which sensitization to BCNU was observed
Method: as §2

[7] = system: XP cells; assay: as above; format: cell-based, human; settings: inactivator alone, Figure 6, compared with V79 cells, in words
Method: as §2

[8] = system: Raji cells; assay: Sensitization of Raji cells to temozolomide (XTT assay); format: cell-based, human
Method: as §1

[9] = system: ATase; assay: Depletion of ATase activity in A375 tumour xenografts; format: in vivo, nude mice; settings: 30 mg/kg, 2 or 24 hours after administration, Fig. 8, in words
Method: 0X6 OPT, England (OLAC mice). […] For this reason lower doses were administered.
A375M (human melanoma) cells were grown in DMEM containing 10% fetal bovine serum. The cells were prepared for in vivo inoculation by incubation with 0.01% trypsin.
Cells (10^6) in 100µl of PBS were injected subcutaneously into the right-hand flank of 8-10 week old nu/nu athymic mice. These cells were allowed to develop into a tumour for 3-4 weeks for passaging into experimental animals. Tumour blocks measuring 2mm x 2mm x 2mm were implanted subcutaneously on the right hand flank. These animals were ready for use in inactivator experiments in 7-10 days.

[10] = system: human bone marrow cells; assay: Sensitization of bone marrow cells to temozolomide (GM-CFC assay); format: cell-based; settings: for sensitization effect on human bone marrow cells to temozolomide, compared with 0^6-benzylguanine: 10µM inactivator, Figure 14, in words
Text: For the granulocyte/macrophage colony-forming cell (GM-CFC) assay primary human bone marrow samples were obtained from patients undergoing cardiothoracic surgery. […] The colonies represented precursor cells of the granulocyte/macrophage lineage (huGM-CFC). Survival was expressed as a % of the number of colonies at zero dose temozolomide.

[11] = Inactivator toxicity in bone marrow cells (GM-CFC colonies, inactivator alone); format: cell-based, human; settings: human, bone marrow gm-cfc, inactivator 10uM, read-out: No. of colonies as % of control (ie no inactivator)
Text: (§3) For the granulocyte/macrophage colony-forming cell (GM-CFC) assay primary human bone marrow samples were obtained from patients undergoing cardiothoracic surgery. […] The colonies represented precursor cells of the granulocyte/macrophage lineage (huGM-CFC). […]

[12] = system: bone marrow cells; assay: as above; format: cell-based, human; settings: 10uM, 5 patients A - E, Table 7, in words
Text: as §3

With `Nc1nc(OCc2ccco2)c2nc[nH]c2n1` [B.4203, O^6-furfurylguanine] the IC50 [1] was 0.12 µM, the “Raji sensitization (D90.^C/D90.^I) 1.0µM” value [2] was 5.7 and the “Raji sensitization (D90.^C/D90.^I) O.1µM” value [2] was 2.6. For the same compound, the “A375M sensitization (D50.^C/D50.^I) 0.5uM” value [3] was 2.0, the “A375M sensitization (D50.^C/D50.^I) 5.0uM” value [3] was 2.5 and the selectivity ratio ([4]; read-out: growth inhibitory dose in V79 cells relative to the I50 dose) was no less than 100. For the same compound, the MCC at 2 h ([4]; inactivator alone, up to 600µM, 2h at 37°, read-out: doses producing some growth inhibition of V79 cells) was greater than 100 µM, the “toxic concentrations in V79 cells relative to those at which sensitization to BCNU was observed” value ([5]; Figs 5 & 6) was “at least 100 times” and the selectivity ratio [6] was no less than 100. For the same compound, the “susceptibility of XP cells to the growth inhibitory effects of the inactivator” value [7] was “as susceptible”.

In the case of `Nc1nc(OCc2cccs2)c2nc[nH]c2n1` [B.4205, O^6-thenylguanine], the “sensitizing Raji cells to the growth inhibitory effects of BCNU, compared with BeG” value ([2]; 0.1uM inactivator) is reported as “more effective than BeG”, the “sensitizing Raji cells to the growth inhibitory effects of BCNU, compared with BeG” value ([2]; 1.0uM inactivator) is reported as “equally effective” and the “Raji sensitization (D90.^C/D90.^I) 1.0µM” value [2] is reported as 8.0. For the same compound, the “Raji sensitization (D90.^C/D90.^I) O.1µM” value [2] was 8.4, the “A375M sensitization (D50.^C/D50.^I) 0.5uM” value [3] was 2.8 and the “A375M sensitization (D50.^C/D50.^I) 1.0uM” value ([3]; inactivator 1.0uM 2 hours before) was 2.3. For the same compound, the “A375M sensitization (D50.^C/D50.^I) 5.0uM” value [3] was 3.5, the “sensitising Raji cells to the growth inhibitory effects of temozolomide, compared with BeG” value ([8]; 0.1uM inactivator, Figure 3, in words) was “more effective than BeG” and the “dose response of sensitization of Raji cells to temozolomide” value ([8]; inactivator 0.1 to 5.0µM, Figures 3 and 4, in words) was “lack of dose response”. The “doses producing some growth inhibition of V79 cells” value ([5]; inactivator alone, up to 600µM, 2h at 37°, Figure 5) was “no such effects were seen”, the selectivity ratio [6] was no less than 100 and the “susceptibility of XP cells to the growth inhibitory effects of the inactivator” value [7] was “more sensitive than V79 cells”. The “inactivating ATase in human melanoma xenografts grown in nude mice, compared with BeG” value [9] was “as effective as BeG”, the “sensitization effect on human bone marrow cells to temozolomide, compared with 0^6-benzylguanine” value ([10]; patient D) was “no differential” and the “sensitization effect on human bone marrow cells to temozolomide, compared with 0^6-benzylguanine” value ([10]; patients C & E) was “smaller sensitization effect than 0^6-benzylguanine”. For the same compound, the “sensitization of GM-CFCs in human bone marrow samples to the toxic effects of temozolomide” value ([10]; three samples tested (BeG: all three; B.4205: two of these), Fig. 14, in words) was “little or no sensitization”, the viability at 216 h, 10 µM ([11]; Patient A) was 91% and the viability at 216 h, 10 µM ([11]; Patient B) was 46%. It also gave a viability at 216 h, 10 µM ([11]; Patient C) of 97%, a viability at 216 h, 10 µM ([11]; Patient D) of 118% and a viability at 216 h, 10 µM ([11]; Patient E) of 89%. For the same compound, the “toxic effect of inactivator alone on bone marrow cells, compared with 0^6-benzylguanine” value [12] was “comparable to those for 0^6-benzylguanine”.
